Measurements taken from ChEMBL document CHEMBL4507268 (2021).

Tests used:
Conditions in all cases: Compound concentration 1.0 uM
[1] = biological target: Calcium/calmodulin-dependent protein kinase type II subunit gamma (Homo sapiens) (UniProt Q13555)
[2] = biological target: T1, Serine/threonine-protein kinase DCLK2 (Homo sapiens) (UniProt Q8N568)
T1 sequence (whole entry): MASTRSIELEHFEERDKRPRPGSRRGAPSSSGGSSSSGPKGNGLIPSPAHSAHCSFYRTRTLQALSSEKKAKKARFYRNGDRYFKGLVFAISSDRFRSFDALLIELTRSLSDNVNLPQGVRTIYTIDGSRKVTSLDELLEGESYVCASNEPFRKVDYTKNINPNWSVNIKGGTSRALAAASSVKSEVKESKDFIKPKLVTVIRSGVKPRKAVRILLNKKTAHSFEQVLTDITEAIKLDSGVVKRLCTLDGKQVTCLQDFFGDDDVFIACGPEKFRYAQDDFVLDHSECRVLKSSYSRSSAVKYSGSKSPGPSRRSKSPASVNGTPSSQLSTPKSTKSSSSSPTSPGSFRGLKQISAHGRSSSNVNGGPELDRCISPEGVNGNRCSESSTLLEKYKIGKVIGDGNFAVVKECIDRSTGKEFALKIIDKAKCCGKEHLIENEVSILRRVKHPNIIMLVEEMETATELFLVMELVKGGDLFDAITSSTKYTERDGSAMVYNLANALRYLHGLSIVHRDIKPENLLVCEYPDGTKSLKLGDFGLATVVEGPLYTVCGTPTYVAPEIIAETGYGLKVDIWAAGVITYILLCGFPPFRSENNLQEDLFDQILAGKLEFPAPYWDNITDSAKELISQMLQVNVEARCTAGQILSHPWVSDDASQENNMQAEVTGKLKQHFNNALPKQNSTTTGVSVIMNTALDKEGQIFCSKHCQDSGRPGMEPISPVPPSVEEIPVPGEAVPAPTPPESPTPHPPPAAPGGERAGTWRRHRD

[3] = biological target: Mitogen-activated protein kinase kinase kinase 9 (Homo sapiens) (UniProt P80192)
[4] = biological target: T2, Serine/threonine-protein kinase D2 (Homo sapiens) (UniProt Q9BZL6)
T2 sequence (whole entry): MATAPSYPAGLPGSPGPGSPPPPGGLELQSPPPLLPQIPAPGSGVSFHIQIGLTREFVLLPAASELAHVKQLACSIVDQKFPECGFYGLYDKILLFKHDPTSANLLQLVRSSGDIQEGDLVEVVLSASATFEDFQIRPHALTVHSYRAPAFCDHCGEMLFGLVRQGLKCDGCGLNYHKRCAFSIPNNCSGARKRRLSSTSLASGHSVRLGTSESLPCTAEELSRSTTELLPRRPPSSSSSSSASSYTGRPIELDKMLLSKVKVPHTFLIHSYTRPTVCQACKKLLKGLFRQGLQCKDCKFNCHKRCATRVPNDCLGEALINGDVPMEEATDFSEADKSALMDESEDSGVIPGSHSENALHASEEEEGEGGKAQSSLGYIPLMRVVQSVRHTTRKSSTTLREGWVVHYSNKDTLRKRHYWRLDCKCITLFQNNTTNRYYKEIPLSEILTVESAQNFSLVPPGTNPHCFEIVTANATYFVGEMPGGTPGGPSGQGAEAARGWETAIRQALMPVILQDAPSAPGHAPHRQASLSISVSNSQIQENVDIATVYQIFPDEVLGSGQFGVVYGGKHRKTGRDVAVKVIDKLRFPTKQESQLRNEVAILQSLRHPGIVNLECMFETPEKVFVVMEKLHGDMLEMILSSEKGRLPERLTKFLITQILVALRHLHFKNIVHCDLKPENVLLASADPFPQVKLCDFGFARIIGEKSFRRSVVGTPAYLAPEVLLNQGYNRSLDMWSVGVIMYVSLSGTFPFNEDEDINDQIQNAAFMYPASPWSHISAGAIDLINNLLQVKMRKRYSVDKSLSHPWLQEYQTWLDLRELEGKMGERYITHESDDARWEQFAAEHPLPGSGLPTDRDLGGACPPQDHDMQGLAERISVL

[5] = biological target: Serine/threonine-protein kinase SIK3 (Homo sapiens) (UniProt Q9Y2K2)

Measured: % residual kinase activity

Mitogen-activated protein kinase kinase kinase 9 (Homo sapiens), sequence (P80192 whole entry, looked up): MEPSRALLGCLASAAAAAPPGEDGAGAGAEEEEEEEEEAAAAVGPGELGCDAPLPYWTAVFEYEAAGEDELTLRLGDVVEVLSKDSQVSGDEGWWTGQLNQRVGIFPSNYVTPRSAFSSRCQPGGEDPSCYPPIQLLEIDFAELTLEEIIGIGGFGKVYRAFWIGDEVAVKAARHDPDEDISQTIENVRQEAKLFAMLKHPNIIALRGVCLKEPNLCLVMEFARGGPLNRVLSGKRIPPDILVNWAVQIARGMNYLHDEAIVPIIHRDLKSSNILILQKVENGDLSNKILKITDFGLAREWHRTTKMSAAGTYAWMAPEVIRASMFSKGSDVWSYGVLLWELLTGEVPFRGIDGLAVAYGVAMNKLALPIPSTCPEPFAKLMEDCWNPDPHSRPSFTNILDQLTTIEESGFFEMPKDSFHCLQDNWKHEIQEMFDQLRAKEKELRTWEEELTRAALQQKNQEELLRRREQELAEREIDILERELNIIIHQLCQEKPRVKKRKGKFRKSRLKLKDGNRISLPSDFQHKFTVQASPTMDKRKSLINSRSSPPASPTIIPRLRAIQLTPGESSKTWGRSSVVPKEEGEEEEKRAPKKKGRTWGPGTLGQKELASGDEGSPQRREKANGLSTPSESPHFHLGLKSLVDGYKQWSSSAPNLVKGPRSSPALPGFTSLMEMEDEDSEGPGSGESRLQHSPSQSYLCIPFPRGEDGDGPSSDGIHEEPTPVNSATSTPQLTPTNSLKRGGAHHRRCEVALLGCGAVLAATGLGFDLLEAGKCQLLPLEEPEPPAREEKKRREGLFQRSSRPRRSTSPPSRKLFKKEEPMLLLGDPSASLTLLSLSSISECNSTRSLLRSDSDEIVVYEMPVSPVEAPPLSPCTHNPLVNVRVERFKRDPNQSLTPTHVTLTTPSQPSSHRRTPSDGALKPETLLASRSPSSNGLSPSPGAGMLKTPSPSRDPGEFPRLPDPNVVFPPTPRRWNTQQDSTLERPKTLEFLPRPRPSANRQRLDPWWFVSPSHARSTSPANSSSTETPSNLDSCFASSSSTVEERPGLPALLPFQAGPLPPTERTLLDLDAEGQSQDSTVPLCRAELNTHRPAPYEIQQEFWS
Serine/threonine-protein kinase SIK3 (Homo sapiens), sequence (Q9Y2K2 whole entry, looked up): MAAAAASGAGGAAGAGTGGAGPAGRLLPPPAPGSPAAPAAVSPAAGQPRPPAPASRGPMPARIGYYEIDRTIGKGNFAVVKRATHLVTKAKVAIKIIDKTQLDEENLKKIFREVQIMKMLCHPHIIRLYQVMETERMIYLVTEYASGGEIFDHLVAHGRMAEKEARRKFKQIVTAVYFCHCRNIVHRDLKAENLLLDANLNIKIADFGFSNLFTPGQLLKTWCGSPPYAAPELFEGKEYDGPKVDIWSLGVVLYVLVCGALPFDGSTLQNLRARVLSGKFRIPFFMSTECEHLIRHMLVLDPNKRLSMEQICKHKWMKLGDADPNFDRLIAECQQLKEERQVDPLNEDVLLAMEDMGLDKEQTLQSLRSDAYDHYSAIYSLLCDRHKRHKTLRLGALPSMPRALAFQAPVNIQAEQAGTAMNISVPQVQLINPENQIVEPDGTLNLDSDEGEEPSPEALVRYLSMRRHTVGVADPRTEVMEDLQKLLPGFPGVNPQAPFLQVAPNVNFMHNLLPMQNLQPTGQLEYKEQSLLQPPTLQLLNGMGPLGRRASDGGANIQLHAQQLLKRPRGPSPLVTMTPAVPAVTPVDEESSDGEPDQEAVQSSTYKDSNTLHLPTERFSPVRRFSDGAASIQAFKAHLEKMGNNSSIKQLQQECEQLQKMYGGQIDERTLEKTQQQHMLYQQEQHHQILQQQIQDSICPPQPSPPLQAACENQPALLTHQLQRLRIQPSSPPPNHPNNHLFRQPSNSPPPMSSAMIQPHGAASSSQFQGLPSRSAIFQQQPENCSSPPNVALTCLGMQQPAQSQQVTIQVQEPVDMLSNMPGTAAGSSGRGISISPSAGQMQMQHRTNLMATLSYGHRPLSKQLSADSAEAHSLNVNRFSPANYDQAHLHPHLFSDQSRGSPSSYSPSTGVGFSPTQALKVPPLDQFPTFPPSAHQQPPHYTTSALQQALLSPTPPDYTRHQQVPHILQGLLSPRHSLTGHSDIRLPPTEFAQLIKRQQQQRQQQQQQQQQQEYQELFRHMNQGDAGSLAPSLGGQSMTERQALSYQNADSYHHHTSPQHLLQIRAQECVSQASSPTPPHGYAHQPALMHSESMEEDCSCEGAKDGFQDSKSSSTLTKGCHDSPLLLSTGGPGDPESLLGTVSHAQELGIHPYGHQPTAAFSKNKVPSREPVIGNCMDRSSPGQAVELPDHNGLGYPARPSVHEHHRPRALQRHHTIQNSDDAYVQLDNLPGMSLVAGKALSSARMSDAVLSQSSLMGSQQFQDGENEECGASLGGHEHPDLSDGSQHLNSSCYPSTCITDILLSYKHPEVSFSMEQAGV
Calcium/calmodulin-dependent protein kinase type II subunit gamma (Homo sapiens), sequence (Q13555 whole entry): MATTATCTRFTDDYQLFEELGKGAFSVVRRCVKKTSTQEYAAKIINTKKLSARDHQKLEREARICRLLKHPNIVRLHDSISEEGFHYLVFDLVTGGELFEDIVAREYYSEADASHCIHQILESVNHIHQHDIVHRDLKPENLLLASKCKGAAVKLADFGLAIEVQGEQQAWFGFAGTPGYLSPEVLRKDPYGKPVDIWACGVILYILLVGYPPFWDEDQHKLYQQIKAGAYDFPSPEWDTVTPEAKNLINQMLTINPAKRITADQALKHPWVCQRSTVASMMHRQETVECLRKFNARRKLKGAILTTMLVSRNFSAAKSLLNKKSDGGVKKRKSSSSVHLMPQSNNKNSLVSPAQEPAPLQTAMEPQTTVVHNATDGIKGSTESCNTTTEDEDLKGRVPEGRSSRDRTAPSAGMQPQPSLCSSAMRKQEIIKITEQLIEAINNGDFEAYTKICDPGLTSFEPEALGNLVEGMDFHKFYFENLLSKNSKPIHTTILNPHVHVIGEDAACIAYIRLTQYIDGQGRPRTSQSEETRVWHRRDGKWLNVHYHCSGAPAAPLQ

CN1CCN(c2cnc3c(C4CCN(C(=O)c5ccc(OC(F)(F)F)cc5N)CC4)ncnc3c2)CC1 [BAY-885]
inactive: [1] 93% | [2] 90% | [3] 108% | [4] 106% | [5] 96%
